Patent publication US6465461B1, “Triazine compounds for treatment of CNS disorders” (SmithKline Beecham Corporation, priority 1997, dated 2002)

Experiments:
[1] = system: male Han Wistar rats; assay: Rat maximal electroshock test (MES); format: in vivo; conditions: oral, 2 hr prior to test; for ED50: Rattus norvegicus, suspension in 0.25% methylcellulose, 200 mA, 200 millisec, read-out: MES ED50 (hind limb extension); for therapeutic index (ratio of the ataxia ED50 and MES ED50): rat
Method: For example, male Han Wistar rats (150-200 grms) were dosed orally with a suspension of the test compound in 0.25% methylcellulose 2 hr prior to test. A visual observation is carried out just prior to testing for the presence of ataxia. Using auricular electrodes a current of 200 mA, duration 200 millisec, is applied and the presence or absence of hind limb extension noted.

[2] = system: mouse; assay: Mouse pentylenetetrazol infusion test; format: in vivo; conditions: 1 h, read-out: ED50 in pentylenetetrazol infusion test (time to second twitch)
[3] = system: rat; assay: Rat intraplantar carrageenan model of hyperalgesia and inflammation; format: in vivo; conditions: oral; for ED50: Rattus norvegicus, 30 minutes prior to carrageenan (100 μl of 2% intraplantar), read at three hours, read-out: ED50 for inhibition of the carrageenan-induced reduction in weight bearing
Method: Three hours after intraplantar carrageenan administration (100 μl of 2%) in the rat there is a reduction in weight bearing on the inflamed paw and an increase in paw volume consistent with acute hyperalgesia and inflammation.

[4] = molecular target: recombinant human brain type IIA Na+ channel expressed in Chinese hamster ovary cells (Homo sapiens, UniProt Q99250); assay: Whole-cell voltage-clamp on voltage-gated sodium channels
Chain of recombinant human brain type IIA Na+ channel expressed in Chinese hamster ovary cells (Q99250 whole entry): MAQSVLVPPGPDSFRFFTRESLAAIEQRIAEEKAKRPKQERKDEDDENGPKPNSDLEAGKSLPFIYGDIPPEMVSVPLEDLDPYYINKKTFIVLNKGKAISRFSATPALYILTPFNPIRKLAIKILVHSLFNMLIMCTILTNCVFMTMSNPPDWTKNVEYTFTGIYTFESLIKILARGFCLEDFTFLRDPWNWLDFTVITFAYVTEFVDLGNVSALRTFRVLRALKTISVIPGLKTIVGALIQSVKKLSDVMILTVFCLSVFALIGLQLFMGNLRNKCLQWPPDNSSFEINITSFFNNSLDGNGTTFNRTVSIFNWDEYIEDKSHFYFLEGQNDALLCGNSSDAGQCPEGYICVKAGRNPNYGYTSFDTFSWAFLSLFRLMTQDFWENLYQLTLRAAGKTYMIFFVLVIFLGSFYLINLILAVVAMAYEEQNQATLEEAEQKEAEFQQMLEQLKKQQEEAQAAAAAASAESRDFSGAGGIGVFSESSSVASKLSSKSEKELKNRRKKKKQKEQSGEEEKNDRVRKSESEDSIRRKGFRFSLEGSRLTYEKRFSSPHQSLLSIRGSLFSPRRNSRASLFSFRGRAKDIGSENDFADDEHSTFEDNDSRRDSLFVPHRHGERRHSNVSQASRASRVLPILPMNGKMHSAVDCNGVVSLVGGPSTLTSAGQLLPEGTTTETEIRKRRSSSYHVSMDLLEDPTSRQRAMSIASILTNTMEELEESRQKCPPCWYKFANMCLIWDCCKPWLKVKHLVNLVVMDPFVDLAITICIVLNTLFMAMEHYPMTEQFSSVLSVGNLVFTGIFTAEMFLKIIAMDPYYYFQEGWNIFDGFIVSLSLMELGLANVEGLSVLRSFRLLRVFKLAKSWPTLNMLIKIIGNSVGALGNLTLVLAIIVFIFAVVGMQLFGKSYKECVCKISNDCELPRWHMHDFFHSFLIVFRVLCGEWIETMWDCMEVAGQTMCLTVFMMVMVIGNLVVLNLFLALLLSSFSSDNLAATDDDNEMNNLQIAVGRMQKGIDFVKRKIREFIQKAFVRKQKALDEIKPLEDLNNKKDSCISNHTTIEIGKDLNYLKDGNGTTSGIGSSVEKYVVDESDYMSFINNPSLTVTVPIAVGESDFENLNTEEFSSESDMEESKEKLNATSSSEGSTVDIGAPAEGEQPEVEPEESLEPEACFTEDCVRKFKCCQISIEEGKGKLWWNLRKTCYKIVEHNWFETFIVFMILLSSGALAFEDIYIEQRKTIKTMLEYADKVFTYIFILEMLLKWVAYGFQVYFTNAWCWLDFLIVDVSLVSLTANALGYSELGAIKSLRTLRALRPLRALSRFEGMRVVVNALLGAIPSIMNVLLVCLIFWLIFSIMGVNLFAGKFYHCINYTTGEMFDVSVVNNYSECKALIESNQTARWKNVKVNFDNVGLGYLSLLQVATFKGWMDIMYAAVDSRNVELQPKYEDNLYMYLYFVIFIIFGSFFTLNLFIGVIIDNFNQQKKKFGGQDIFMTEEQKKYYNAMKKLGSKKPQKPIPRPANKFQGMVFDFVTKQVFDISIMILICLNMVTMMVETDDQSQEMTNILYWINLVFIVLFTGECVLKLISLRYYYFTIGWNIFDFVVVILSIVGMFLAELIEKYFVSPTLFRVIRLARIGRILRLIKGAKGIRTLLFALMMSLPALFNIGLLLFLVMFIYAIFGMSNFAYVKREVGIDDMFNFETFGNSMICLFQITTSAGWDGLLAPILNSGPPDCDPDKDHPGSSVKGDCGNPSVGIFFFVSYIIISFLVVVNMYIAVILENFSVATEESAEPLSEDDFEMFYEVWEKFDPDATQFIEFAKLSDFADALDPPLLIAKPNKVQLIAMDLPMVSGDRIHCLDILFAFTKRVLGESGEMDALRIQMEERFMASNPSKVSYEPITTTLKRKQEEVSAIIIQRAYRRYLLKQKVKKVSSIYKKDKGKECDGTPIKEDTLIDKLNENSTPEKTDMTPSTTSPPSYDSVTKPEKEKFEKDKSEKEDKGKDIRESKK

[5] = system: Male C57BL/6 mice; assay: Mouse MPTP induced neurotoxicity (striatal dopamine depletion); format: in vivo; conditions: 30 minutes before each MPTP injection, striata seven days after MPTP
Method: The mouse MPTP model is generally used as a model of Parkinson's disease.
Male C57BL/6 mice received four intraperitoneal injections of MPTP.HCl (15 mg of free base per kg; Research Biochemicals) in saline at 2 hour intervals. Control mice received saline only. The test-compound was administered as four subcutaneous injections in olive oil at 2 hour intervals, 30 minutes before each MPTP injection.
Seven days after MPTP injection the mice were sacrificed and the striata dissected out, immediately frozen, and stored at −80° C. until analysis. On the day of assay issue samples were sonicated in 10 volume (wt./vol.) of 0.1 M perchloric acid containing 1.9 mM sodium hydrosulfite and 1.6 mg/ml DBA-HBr. After centrifugation (2800 g, 10 min at room temperature) and filtration (pore size 0.5 μm, Millipore), the supernatant was transferred to a vial and placed in the automatic sampler (M231XL, Gilson). Dopamine content was measured by high performance liquid chromatography. A compound of formula (I) produced 75% protection against dopamine depletion when dosed at 3 mg/kg (×4) and 98% protection when dosed at 10 mg/kg (×4).

Compound | ED50 [1] [mg/kg] | therapeutic index (ratio of the ataxia ED50 and MES ED50) [1] | ED50 [2] [mg/kg] | ED50 [3] [mg/kg] | state selectivity (potency at inactivated state versus resting state) [4] | reduction in paw volume (anti-inflammatory activity) ([3]; 30 mg/kg, 30 minutes prior to carrageenan) [%] | protection against dopamine depletion ([5]; 3 mg/kg (×4) subcutaneous) [%] | protection against dopamine depletion ([5]; 10 mg/kg (×4) subcutaneous) [%] | IC50 [4] [µM]
Nc1nnc(-c2cccc(Cl)c2Cl)c(N)n1 [lamotrigine, 3,5diamino-6-(2,3dichlorophenyl)-1,2,4-triazine, reference compound] | 6.1 | 3.3 | 8.4 | 23.5 | approximately 30 fold |  |  |  | 
Nc1ncnnc1-c1cc(Cl)cc(Cl)c1Cl [compound of formula (I), 5-amino-6-[2,3,5-trichlorophenyl]-1,2,4-triazine] | 1.7 | 23.7 | 3.8 | 7.5 | approximately 70 fold | 50 | 75 | 98 | 785
